Laboratory results: patent US12325866B2, “Systems and methods for growing cells in vitro” (Yissum Research Development Company of the Hebrew …, priority 2016, dated 2025)

How the values were obtained:
CSIF [1] = assay: Conversion of CSIF to adipocytes in serum-free medium (LipidTOX neutral lipid stain); type: cell-based, chicken
Protocol: FIGS. 4A-D depict conversion of CSIF to adipocytes in serum-free medium. FIGS. 4A-C. LipidTOX™ (Thermo Fisher Scientific) neutral lipid stain of serum-free cultures of CSIF exposed to either 400 μM oleic acid (OA) alone (FIG. 4A) or with 0.5 mM IBMX (OA+IBMX, FIG. 4B), or 10 μM Rosiglitazone (OA+TZD, FIG. 4C) for 7 days. […] FIG. 4D—Normalized intracellular lipid content (in arbitrary fluorescent units) of CSIF cultures treated for 4 and 7 days as prescribed above.
To develop a protocol for conversion of the spontaneously immortalized chicken fibroblasts (CSIF line) under serum-free conditions, the present inventor seeded the CSIF at 70% confluence in the optimized serum-free DMEM/F12 medium supplemented with dexamethasone (0.1 μM), 1×ITS+3 (Sigma, 12771), and bFGF (10 ng/ml). The CSIF cells were treated for 4 or 7 days with 200 to 400 μM oleic acid alone, or in combination with 0.5 mM IBMX, or 10 μM of the FDA-approved small molecule Rosiglitazone.

[2] = system: stromal-vascular cells derived from chicken adipose tissues; conditions: oleic acid 200-400 μM, in the presence of serum; cited from earlier work
primary CEF = conditions: oleic acid 400 μM with 20% serum; selenium 100-300 μg/l with 2% serum; cited from earlier work
[3] = system: primary chicken embryonic fibroblasts (CEF); assay: Proliferation of primary CEF in serum-free media / with supplements; type: cell-based; conditions: serum-free medium, or minimal medium plus supplement (EGF 5 ng/ml, PGE2 0.01 μM, GH 10 ng/ml)
Protocol: The CSIFs readily grow on tissue culture plastic in DMEM/F12 medium supplemented with 15% FBS, and 2 mM of […] (FIG. 2D). There are several serum-free medium formulations for the growth of human and mouse fibroblasts, including PCS-201-040 (ATCC) and […] To develop a serum-free medium that supports the culture of CEF and CS IF, the present inventor formulated a minimal medium composed of DMEM/F12 supplemented with 0.1 μM dexamethasone, 10 μg/ml insulin, 5.5 μg/ml transferrin, and 5 ng/ml selenium (ITS), 12 μM linoleic and 12 μM oleic acids, and 2 mM of […]. Cells were plated in FBS containing medium, and transferred to minimal medium after overnight attachment. Basal medium was supplemented with growth factors and hormones showing that while heparin and T3 had little effect of CSIF growth (data not shown), the addition of basic Fibroblast Growth Factor (bFGF, 10 ng/ml) was essential (FIGS. 3C and 3F), showing 20±2 hours doubling time (data not shown).

CSIF [4] = assay: Serum-free medium development: sulforhodamine B stain and protein content after 72 hours; type: cell-based, chicken; conditions: for Effect on CSIF growth / proliferation: supplement added to minimal serum-free medium, bFGF 10 ng/ml, EGF 5 ng/ml, PGE2 0.01 μM, GH 10 ng/ml
Protocol: FIGS. 3A-F depict the development and identification of serum-free medium for CSIF propagation. Shown are sulforhodamine B stain (FIGS. 3A-E) and protein content quantification (FIG. 3F) following 72 hours of culture with 15% serum (“FBS”), minimal serum-free medium (MIN) alone (FIG. 3B) or with 10 ng/ml basic Fibroblast Growth Factor (bFGF, FIG. 3C), 5 ng/ml Epidermal Growth Factor (EGF, FIG. 3D), 0.01 μM Prostaglandin E2 (PGE2, FIG. 3E), or 10 ng/ml Growth Hormone. Serum-free medium (SFM) contained MIN medium supplemented with bFGF (10 ng/ml), EGF (5 ng/ml), and PGE2 ([…]).
To develop a serum-free medium that supports the culture of CEF and CS IF, the present inventor formulated a minimal medium composed of DMEM/F12 supplemented with 0.1 μM dexamethasone, 10 μg/ml insulin, 5.5 μg/ml transferrin, and 5 ng/ml selenium (ITS), 12 μM linoleic and 12 μM oleic acids, and 2 mM of L-Analyl-L-Glutamine. Cells were plated in FBS containing medium, and transferred to minimal medium after overnight attachment. Basal medium was supplemented with growth factors and hormones showing that while heparin and T3 had little effect of CSIF growth (data not shown), the addition of basic Fibroblast Growth Factor (bFGF, 10 ng/ml) was essential (FIGS. 3C and 3F), showing 20±2 hours doubling time (data not shown).

CSIF [5] = assay: Dox-induced MyoD1+MYOG conversion to myocytes, rMLC3-GFP reporter; type: cell-based, chicken; conditions: Dox-induced MyoD1+MYOG expression for 11 or 30 days
Source text: FIGS. 5A-E depict conversion of CSIF to myocytes. FIG. 5A—Phase image of CSIF expressing Dox-inducible MyoD1 and Myogenin (MYOG) for 6 days (“d6”). FIGS. 5B-C—CSIF expressing rat myosin light chain COP-GFP reporter (rMLC3-GFP) following Dox-induced MyoD1+MYOG expression for 11 days (FIG. 5B) or 30 days (FIG. 5C). About 2-4% of the cultures become positive for MLC3 (Green). MLC3 positive myoblasts maintain elongated fiber morphology for over 30 days in vitro (FIG. 5C). FIG. 5D—Fluorescence staining using phalloidin (F-Actin probe, green) showing multinucleated cells (syncytia) as well as some striation following 7 days in culture. Nuclei are stained with Hoechst (blue). FIG. 5E—Immunofluorescence staining for α1-skeletal muscle actin (ACTA1, green) and Troponin T (red) showing a clear muscle phenotype by day 7 of induction. Nuclei are stained with Hoechst (blue).
To examine if similar conversion of chicken cells to myocytes is possible, the present inventor generated several nucleic acid constructs (vectors) as is schematically illustrated in FIGS. 6-8 and 12. […] A second lentiviral vector (SEQ ID NO:2, FIG. 7) was created for Dox-inducible chicken MYOG expression included the cMyogenin coding sequence (SEQ ID NO: 7) under the control of the minimal CMV promoter (SEQ ID NO: 8). […]

In the case of `CCCCCCCC/C=C\CCCCCCCC(=O)O` [oleic acid], the Lipid accumulation (CSIF [1]; 200 to 400 μM oleic acid, 4 or 7 days, serum-free) is listed as “increased lipid accumulation”, the “Differentiation of chicken preadipocytes to adipocytes” value [2] is listed as “induces their differentiation to adipocytes” and the “Lipid accumulation in primary CEF” value (primary CEF) is listed as “induced lipid accumulation”.
With `CCCCC[C@H](O)/C=C/[C@H]1[C@H](O)CC(=O)[C@@H]1C/C=C\CCCC(=O)O` [PGE2, Prostaglandin E2] the “Proliferation of primary CEF” value [3] was “supported the proliferation” and the “Effect on CSIF growth / proliferation” value (CSIF [4]) was “supported the proliferation”.
For `C[C@H]1c2cccc(O)c2C(=O)C2=C(O)[C@]3(O)C(=O)C(C(N)=O)=C(O)[C@@H](N(C)C)[C@@H]3[C@@H](O)[C@@H]21` [doxycycline, Doxycycline], the “Cultures positive for MLC3” value (CSIF [5]) was 2-4%.
In the case of heparin, the “Effect on CSIF growth / proliferation” value (CSIF [4]) is reported as “little effect”.
In the case of `N[C@@H](Cc1cc(I)c(Oc2ccc(O)c(I)c2)c(I)c1)C(=O)O` [T3], the “Effect on CSIF growth / proliferation” value (CSIF [4]) is reported as “little effect”.
With `CC(C)Cn1c(=O)n(C)c(=O)c2[nH]cnc21` [IBMX, 3-isobutyl-1-methylxanthine] the “Normalized intracellular lipid content” value (CSIF [1]; 4 and 7 days, 400 μM OA with small molecule (FIG. 4D)) was “optimal results”, the “Adipogenesis (neutral lipid stain)” value (CSIF [1]; 7 days, with 400 μM oleic acid, IBMX 0.5 mM, Rosiglitazone 10 μM) was “strong adipogenesis” and the “Adipogenic phenotype (cell shape)” value (CSIF [1]; added to oleic acid, IBMX 0.5 mM, Rosiglitazone 10 μM) was “supported a rounded adipogenic phenotype”. For the same compound, the “Differentiation of chicken preadipocytes to adipocytes” value [2] was “no affect”.
For bFGF: basic fibroblast growth factor, the Doubling time (CSIF [4]; minimal medium plus bFGF 10 ng/ml (data not shown)) was 20 ± 2 h and the “Effect on CSIF growth / proliferation” value (CSIF [4]) was “essential”.
For GH: Growth Hormone, the “Proliferation of primary CEF” value [3] was “supported the proliferation” and the “Effect on CSIF growth / proliferation” value (CSIF [4]) was “supported the proliferation”.
